Measurements reported in the METLIN SMRT retention time set (Domingo-Almenara et al. 2019).

Assay: gradient 5% acetonitrile 3 min, to 50% in 2 min, to 85% in 15 min, held 3 min, 100 µL/min
Conditions: column: Zorbax Extend-C18 2.1 x 50 mm; eluents: water / acetonitrile, 0.1% formic acid
In short: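 In both positive and negative ionization mode, a quadrupole time-of-flight mass spectrometer coupled to HPLC analyzed pure standards run in mixtures of ~100 molecules. The Zorbax Extend-C18 column (2.1 × 50 mm, 1.8 μm) was operated at 100 μL/min with water and acetonitrile, each containing 0.1% formic acid. The dead volume was 40 μL and the dwell volume 900 μL. Retention time came from adduct peaks that were computationally picked and individually inspected by hand.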

| Structure (SMILES) | RP-LC retention time [s] |
| --- | --- |
| CC(=O)N1c2ccc(S(=O)(=O)NCc3ccc4c(c3)CCN4C(=O)C(C)C)cc2CC1C (stereo not drawn) | 801 |
| CCOC(=O)c1nc(Nc2cc(OC)ccc2OC)c2ccccc2n1 | 911 |
| CCOc1ccccc1NC(=O)C1CCc2nc(N3CCOCC3)ncc2C1 (stereo not drawn) | 777 |
| COc1ccc(C2(C(=O)N3CC(F)(F)C[C@H]3CN3CCN(C)CC3)CC2)cc1 | 641 |
| O=C(O)c1cnc(-c2ccc(F)cc2)nc1-c1ccncc1 | 690 |
| COc1ccc(-c2ccc(=O)n(Cc3nc(-c4ccccc4OC)no3)n2)cc1 | 891 |
| CCCCOc1ccc(-c2nc(C3CC(=O)N(c4ccc(OC)c(OC)c4)C3)no2)cc1 (stereo not drawn) | 1120 |
| CCC(C)NC(=O)N1CCCN(C2=NS(=O)(=O)C(c3ccc(F)cc3)=C2C)CC1 (stereo not drawn) | 787 |
| O=C(COc1ccccc1)N1CCN(c2nc(CN3CCCC3)cs2)CC1 | 623 |
| CS(=O)(=O)N1CCCC(C(=O)Nc2nc3cc4c(cc3s2)OCCO4)C1 (stereo not drawn) | 707 |
| Cc1ccc(CNCCSc2nnnn2C)s1 | 580 |
| CC(=O)Nc1ccc(CCc2nc3ccc(C(=O)NCCC4=CCCCC4)cc3[nH]2)cc1 | 669 |
| Fc1ccc(CN2CCc3nc(N4CCN(c5ccccc5F)CC4)ncc3C2)c(F)c1 | 795 |
| CSc1cccc(NC(=O)N2CCN(c3cc(C)nc(N4CCOCC4)n3)CC2)c1 | 650 |
| CCC(=O)Nc1ccc2c(c1)CN(C(=O)c1c(F)cccc1F)C(C(=O)N1CCCC1)C2 (stereo not drawn) | 700 |
| CCOc1cc(=O)n2c(c1C(=O)Nc1ccc(Cl)cc1C)CCCC2 | 786 |
| CC(C)NC(=O)N(C1CCOCC1)C1CN(C(=O)c2cncc(Br)c2)C1 | 604 |
| CCOCCCNCc1ccc(-c2ccccc2F)o1 | 672 |
| Cc1ccn2c(Nc3ccccc3C)c(-c3cc(Br)ccc3F)nc2c1 | 814 |

| Structure (SMILES) | RP-LC retention time [s] |
| --- | --- |
| CCCCCCN1CCN(c2cccc(Cl)c2)CC1 | 737 |
| Cc1ccc(CNC(=O)Cc2nnc(-c3cnccn3)o2)cc1C | 720 |
| Cc1ccc(-n2c(N3CCCC(C(=O)NCc4cccs4)C3)nc3ccsc3c2=O)cc1 (stereo not drawn) | 880 |
| Cc1ccc(NC(=O)CN2CCC(C(=O)NCc3c(F)cccc3F)CC2)c(C)c1 | 585 |
| CS(=O)(=O)N1CC(n2cc(C(=O)NCC3CC3)nn2)C1 | 645 |
| CCOc1ccccc1NC(=O)C1CCCN(c2nc3ccccc3nc2OCC)C1 (stereo not drawn) | 1320 |
| CCNC(=O)C1CCN(c2cnn(Cc3ccccc3)c(=O)c2)CC1 | 674 |
| COc1ccccc1NC(=O)N1CCC(CNC(=O)CCSc2ccccc2)CC1 | 771 |
| O=C(c1cccs1)N1CCc2c([nH]c3ccccc23)C1c1ccc(F)cc1 (stereo not drawn) | 1150 |
| Cc1ccc(C)n1-c1nnc(N2CCC(C(=O)N3CCN(c4ccccn4)CC3)CC2)s1 | 634 |
| Cc1sc(-c2nnc(C(=O)N3CCCCC3)o2)cc1S(=O)(=O)NC1CC1 | 824 |
| CCOC(=O)COc1ccc2c(c1)C(=O)CC1(CCN(C(C)=O)CC1)O2 | 718 |
| Cc1ccc(NC(=O)N2CCN(CCn3cnc4cccnc43)CC2)c(C)c1 | 594 |
| O=C(NCC(O)c1ccsc1)NC1CCCCC1 (stereo not drawn) | 658 |
| CC(C)CN1C(=O)CCc2cc(NS(=O)(=O)c3cccs3)ccc21 | 819 |
| O=C(CCn1c(=O)sc2ccccc21)Nc1nc(-c2ccccc2)cs1 | 1010 |
| O=C(NCCC1=CCCCC1)C1CCCN(c2nccn3nc(-c4ccccc4Cl)cc23)C1 (stereo not drawn) | 1090 |
| O=c1ccc(S(=O)(=O)N2CCCC2)cn1Cc1ccccc1Cl | 854 |
| CC(C)n1nnc2cc(S(=O)(=O)N3CCCC(C(=O)N4CCC(C(N)=O)CC4)C3)ccc21 (stereo not drawn) | 652 |
